Laboratory results published in patent publication US20140058103A1, “Inhibitors of PI3K-Delta and Methods of Their Use and Manufacture” (Exelixis, Inc., priority 2010, published 2014).

Target: PI3K delta (Homo sapiens, UniProt O00329)
Assay: Luciferase-coupled chemiluminescence kinase assay (ATP consumption, KinaseGlo)
Assay type: biochemical
In short: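 Compound, kinase and ATP (≤ KM) reacted 2 h at ambient temperature, then remaining ATP quantified with luciferase-luciferin (KinaseGlo) luminescence as percent consumed.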

PI3K delta, sequence (O00329 whole entry): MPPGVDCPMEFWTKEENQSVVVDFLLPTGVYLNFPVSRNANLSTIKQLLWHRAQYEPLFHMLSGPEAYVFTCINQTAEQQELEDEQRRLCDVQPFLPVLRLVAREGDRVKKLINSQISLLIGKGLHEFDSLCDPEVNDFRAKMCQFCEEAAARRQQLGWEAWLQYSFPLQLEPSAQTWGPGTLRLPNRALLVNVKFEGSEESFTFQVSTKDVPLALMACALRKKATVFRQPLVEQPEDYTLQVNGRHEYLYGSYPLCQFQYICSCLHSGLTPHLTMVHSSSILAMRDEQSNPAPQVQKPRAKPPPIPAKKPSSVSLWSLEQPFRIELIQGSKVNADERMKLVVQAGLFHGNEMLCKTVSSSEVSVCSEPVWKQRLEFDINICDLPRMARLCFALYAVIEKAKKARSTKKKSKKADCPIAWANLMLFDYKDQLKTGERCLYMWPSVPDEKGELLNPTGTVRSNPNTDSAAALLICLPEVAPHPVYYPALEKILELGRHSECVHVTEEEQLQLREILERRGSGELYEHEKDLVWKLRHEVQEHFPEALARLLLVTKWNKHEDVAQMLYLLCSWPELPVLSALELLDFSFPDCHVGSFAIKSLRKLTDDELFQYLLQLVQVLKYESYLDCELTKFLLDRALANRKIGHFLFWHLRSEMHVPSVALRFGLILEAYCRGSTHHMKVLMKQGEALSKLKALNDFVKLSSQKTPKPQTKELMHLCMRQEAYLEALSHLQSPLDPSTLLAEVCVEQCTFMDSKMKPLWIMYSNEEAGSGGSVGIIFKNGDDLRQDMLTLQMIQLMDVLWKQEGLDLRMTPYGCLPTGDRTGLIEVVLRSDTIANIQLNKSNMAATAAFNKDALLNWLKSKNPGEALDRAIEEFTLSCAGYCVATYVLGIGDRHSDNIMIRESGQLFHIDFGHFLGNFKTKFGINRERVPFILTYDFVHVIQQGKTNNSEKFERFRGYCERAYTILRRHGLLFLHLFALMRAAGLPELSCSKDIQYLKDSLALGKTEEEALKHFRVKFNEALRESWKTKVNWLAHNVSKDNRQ
PI3K delta, sequence (P27986 whole entry partner): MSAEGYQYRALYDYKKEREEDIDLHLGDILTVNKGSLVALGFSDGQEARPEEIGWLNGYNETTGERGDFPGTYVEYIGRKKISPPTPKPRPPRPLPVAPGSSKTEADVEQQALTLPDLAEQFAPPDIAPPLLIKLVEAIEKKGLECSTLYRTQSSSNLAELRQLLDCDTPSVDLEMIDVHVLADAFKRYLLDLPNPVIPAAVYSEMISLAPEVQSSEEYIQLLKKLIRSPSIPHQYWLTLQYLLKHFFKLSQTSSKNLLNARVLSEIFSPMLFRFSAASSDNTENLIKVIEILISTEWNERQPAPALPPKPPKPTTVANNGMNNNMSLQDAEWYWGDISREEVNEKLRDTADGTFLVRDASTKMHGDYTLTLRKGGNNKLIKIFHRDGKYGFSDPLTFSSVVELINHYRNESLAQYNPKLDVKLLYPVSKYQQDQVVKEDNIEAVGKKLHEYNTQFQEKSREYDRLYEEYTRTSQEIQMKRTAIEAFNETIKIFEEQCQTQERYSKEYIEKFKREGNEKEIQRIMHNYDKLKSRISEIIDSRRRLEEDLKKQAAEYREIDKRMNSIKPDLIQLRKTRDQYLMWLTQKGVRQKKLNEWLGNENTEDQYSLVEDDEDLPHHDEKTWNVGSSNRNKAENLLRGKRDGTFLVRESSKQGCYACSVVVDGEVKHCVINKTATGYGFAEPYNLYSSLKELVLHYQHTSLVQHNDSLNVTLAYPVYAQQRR

In the case of `Cn1c(C(=O)N[C@H]2CC[C@H](O)CC2)nc2c(N3CCC(n4c(=O)[nH]c5ncccc54)CC3)ncnc21` [Compound 329, N-(trans-4-hydroxycyclohexyl)-9-methyl-6-[4-(2-oxo-2,3-dihydro-1H-imidazo[4,5-b]pyridin-1-yl)piperidin-1-yl]-9H-purine-8-carboxamide], the IC50 is reported as under 50 nM.
`CCn1c(C(=O)NCC(F)(F)F)nc2c(N3CCC(n4c(=O)[nH]c5ncccc54)CC3)ncnc21` [Compound 318, 9-ethyl-6-[4-(2-oxo-2,3-dihydro-1H-imidazo[4,5-b]pyridin-1-yl)piperidin-1-yl]-N-(2,2,2-trifluoroethyl)-9H-purine-8-carboxamide] gave an IC50 of under 50 nM.
For `CCn1c(-c2cnn(C)c2C)nc2c(N3CCC(n4c(=O)[nH]c5ccccc54)CC3)ncnc21` [Compound 260, 1-{1-[8-(1,5-dimethyl-1H-pyrazol-4-yl)-9-ethyl-9H-purin-6-yl]piperidin-4-yl}-1,3-dihydro-2H-benzimidazol-2-one], the IC50 was under 50 nM.
Compound `CCn1c(-c2nnc(C(C)C)o2)nc2c(N3CCC(n4c(=O)[nH]c5ccccc54)CC3)ncnc21` [Compound 180, 1-(1-{9-ethyl-8-[5-(1-methylethyl)-1,3,4-oxadiazol-2-yl]-9H-purin-6-yl}piperidin-4-yl)-1,3-dihydro-2H-benzimidazol-2-one] has an IC50 of under 50 nM.
For `CCc1nnc(-c2nc3c(N4CCC5(CC4)C(=O)Nc4ccccc45)ncnc3n2CC)o1` [Compound 236, 1′-[9-ethyl-8-(5-ethyl-1,3,4-oxadiazol-2-yl)-9H-purin-6-yl]spiro[indole-3,4′-piperidin]-2(1H)-one], the IC50 was under 50 nM.
With `Cn1c(C(=O)NCC2CC2)nc2c(N3CCC4(CC3)C(=O)Nc3c(Br)cccc34)ncnc21` [Compound 168, 6-(7-bromo-2-oxo-1,2-dihydro-1′H-spiro[indole-3,4′-piperidin]-1′-yl)-N-(cyclopropylmethyl)-9-methyl-9H-purine-8-carboxamide] the IC50 was under 50 nM.
Work on `CCn1c(-c2ccnnc2)nc2c(N3CCC4(CC3)C(=O)Nc3ccccc34)ncnc21` [Compound 316, 1′-(9-ethyl-8-pyridazin-4-yl-9H-purin-6-yl)spiro[indole-3,4′-piperidin]-2(1H)-one] yielded an IC50 of under 50 nM.
In the case of `CNc1ccc(-c2nc3c(N4CCC(n5c(=O)[nH]c6ncccc65)CC4)ncnc3n2C)cn1` [Compound 354, 1-(1-{9-methyl-8-[6-(methylamino)pyridin-3-yl]-9H-purin-6-yl}piperidin-4-yl)-1,3-dihydro-2H-imidazo[4,5-b]pyridin-2-one], the IC50 is reported as under 50 nM.
Compound `CCn1c(-c2ccc(C(F)(F)F)nc2)nc2c(N3CCC4(CC3)C(=O)Nc3ccccc34)ncnc21` [Compound 324, 1′-{9-ethyl-8-[6-(trifluoromethyl)pyridin-3-yl]-9H-purin-6-yl}spiro[indole-3,4′-piperidin]-2(1H)-one] has an IC50 of under 50 nM.
Compound `Cn1c(C(=O)NCC2CC2)nc2c(N3CCC4(CC3)CC(=O)c3ccccc34)ncnc21` [Compound 119, N-(cyclopropylmethyl)-9-methyl-6-(3-oxo-2,3-dihydro-1′H-spiro[indene-1,4′-piperidin]-1′-yl)-9H-purine-8-carboxamide] has an IC50 of 250 to 500 nM.
`Cn1c(C(=O)N2CCCCC2)nc2c(N3CCC4(CC3)C(=O)NCN4c3ccccc3)ncnc21` [Compound 9, 8-[9-methyl-8-(piperidin-1-ylcarbonyl)-9H-purin-6-yl]-1-phenyl-1,3,8-triazaspiro[4.5]decan-4-one] showed an IC50 of 50 to 250 nM.
In the case of `Cn1c(-c2cn[nH]c2-c2ccccc2)nc2c(N3CCC(n4c(=O)[nH]c5ccccc54)CC3)ncnc21` [Compound 286, 1-{1-[9-methyl-8-(5-phenyl-1H-pyrazol-4-yl)-9H-purin-6-yl]piperidin-4-yl}-1,3-dihydro-2H-benzimidazol-2-one], the IC50 is reported as under 50 nM.
`CCc1nnc(-c2nc3c(N4CCC(n5c(=O)[nH]c6ccccc65)CC4)ncnc3n2C)o1` [Compound 114, 1-{1-[8-(5-ethyl-1,3,4-oxadiazol-2-yl)-9-methyl-9H-purin-6-yl]piperidin-4-yl}-1,3-dihydro-2H-benzimidazol-2-one] showed an IC50 of under 50 nM.
`Cn1c(C(=O)NCC2CC2)nc2c(N3CCC(N4C(=O)NCc5ccccc54)CC3)ncnc21` [Compound 248, N-(cyclopropylmethyl)-9-methyl-6-[4-(2-oxo-3,4-dihydroquinazolin-1(2H)-yl)piperidin-1-yl]-9H-purine-8-carboxamide] gave an IC50 of 250 to 500 nM.
`CCn1c(C(=O)NCC2(O)CC2)nc2c(N3CCC4(CC3)C(=O)Nc3ccccc34)ncnc21` [Compound 215, 9-ethyl-N-[(1-hydroxycyclopropyl)methyl]-6-(2-oxo-1,2-dihydro-1′H-spiro[indole-3,4′-piperidin]-1′-yl)-9H-purine-8-carboxamide] was tested, and the IC50 was under 50 nM.
With `Cc1nc(C(F)(F)F)ccc1-c1nc2c(N3CCC(n4c(=O)[nH]c5ccccc54)CC3)ncnc2n1C` [Compound 284, 1-(1-{9-methyl-8-[2-methyl-6-(trifluoromethyl)pyridin-3-yl]-9H-purin-6-yl}piperidin-4-yl)-1,3-dihydro-2H-benzimidazol-2-one] the IC50 was 500 to 1500 nM.
`CCn1c(C(=O)NCC2CC2)nc2c(N3CCC(n4c(=O)[nH]c5ncccc54)CC3)ncnc21` [Compound 270, N-(cyclopropylmethyl)-9-ethyl-6-[4-(2-oxo-2,3-dihydro-1H-imidazo[4,5-b]pyridin-1-yl)piperidin-1-yl]-9H-purine-8-carboxamide] gave an IC50 of under 50 nM.
Work on `CCn1cc(-c2nc3c(N4CCN(C5=NS(=O)(=O)c6ccccc65)CC4)ncnc3n2C)cn1` [Compound 349, 6-[4-(1,1-dioxido-1,2-benzisothiazol-3-yl)piperazin-1-yl]-8-(1-ethyl-1H-pyrazol-4-yl)-9-methyl-9H-purine] yielded an IC50 of 50 to 250 nM.
`CC(CNC(=O)c1nc2c(N3CCC(n4c(=O)[nH]c5ccccc54)CC3)ncnc2n1C)c1ccccc1` (stereo not drawn) [Compound 61, 9-methyl-6-[4-(2-oxo-2,3-dihydro-1H-benzimidazol-1-yl)piperidin-1-yl]-N-(2-phenylpropyl)-9H-purine-8-carboxamide] showed an IC50 of 250 to 500 nM.
`Cn1c(CNC(=O)OC(C)(C)C)nc2c(N3CCC(n4c(=O)[nH]c5ccccc54)CC3)ncnc21` [Compound 339, 1,1-dimethylethyl ({9-methyl-6-[4-(2-oxo-2,3-dihydro-1H-benzimidazol-1-yl)piperidin-1-yl]-9H-purin-8-yl}methyl)carbamate] showed an IC50 of 500 to 1500 nM.
Compound `C#CCNC(=O)c1nc2c(N3CCC4(CC3)C(=O)Nc3ccccc34)ncnc2n1C` [Compound 140, 9-methyl-6-(2-oxo-1,2-dihydro-1′H-spiro[indole-3,4′-piperidin]-1′-yl)-N-prop-2-yn-1-yl-9H-purine-8-carboxamide] has an IC50 of 50 to 250 nM.
For `COc1cc(C)ccc1S(=O)(=O)N1CCN(c2ncnc3c2nc(-c2cnn(C)c2)n3C)CC1` [Compound 385, 9-methyl-6-(4-{[4-methyl-2-(methyloxy)phenyl]sulfonyl}-piperazin-1-yl)-8-(1-methyl-1H-pyrazol-4-yl)-9H-purine], the IC50 was 500 to 1500 nM.
Compound `Cn1c(-c2cc[nH]c2)nc2c(N3CCC(n4c(=O)[nH]c5ccccc54)CC3)ncnc21` [Compound 166, 1-{1-[9-methyl-8-(1H-pyrrol-3-yl)-9H-purin-6-yl]piperidin-4-yl}-1,3-dihydro-2H-benzimidazol-2-one] has an IC50 of 500 to 1500 nM.
`Cn1c(-c2cn[nH]c2C(F)(F)F)nc2c(N3CCC(n4c(=O)[nH]c5ccccc54)CC3)ncnc21` [Compound 262, 1-(1-{9-methyl-8-[5-(trifluoromethyl)-1H-pyrazol-4-yl]-9H-purin-6-yl}piperidin-4-yl)-1,3-dihydro-2H-benzimidazol-2-one] gave an IC50 of 50 to 250 nM.
In the case of `C#CCNC(=O)c1nc2c(N3CCC(n4c(=O)[nH]c5ccccc54)CC3)ncnc2n1C` [Compound 139, 9-methyl-6-[4-(2-oxo-2,3-dihydro-1H-benzimidazol-1-yl)piperidin-1-yl]-N-prop-2-yn-1-yl-9H-purine-8-carboxamide], the IC50 is reported as 50 to 250 nM.
`Cn1c(C(=O)NCC2CC2)nc2c(N3CCC(n4c(C(F)(F)F)nc5ccccc54)CC3)ncnc21` [Compound 101, N-(cyclopropylmethyl)-9-methyl-6-{4-[2-(trifluoromethyl)-1H-benzimidazol-1-yl]piperidin-1-yl}-9H-purine-8-carboxamide] gave an IC50 of 250 to 500 nM.
`Cn1c(-c2ccncc2)nc2c(N3CCC(n4c(=O)[nH]c5ccccc54)CC3)ncnc21` [Compound 266, 1-[1-(9-methyl-8-pyridin-4-yl-9H-purin-6-yl)piperidin-4-yl]-1,3-dihydro-2H-benzimidazol-2-one] was tested, and the IC50 was 250 to 500 nM.
`CCn1cc(-c2nc3c(N4CCC5(CC4)C(=O)Nc4ccccc45)ncnc3n2C)cn1` [Compound 237, 1′-[8-(1-Ethyl-1H-pyrazol-4-yl)-9-methyl-9H-purin-6-yl]spiro[indole-3,4′-piperidin]-2(1H)-one] showed an IC50 of under 50 nM.
In the case of `Cc1ccc2[nH]c(=O)n(C3CCN(c4ncnc5c4nc(C(=O)NCC4CC4)n5C)CC3)c2c1` [Compound 206, N-(cyclopropylmethyl)-9-methyl-6-[4-(6-methyl-2-oxo-2,3-dihydro-1H-benzimidazol-1-yl)piperidin-1-yl]-9H-purine-8-carboxamide], the IC50 is reported as 250 to 500 nM.
`CCc1nc2c(N3CCC(n4c(=O)[nH]c5ccccc54)CC3)ncnc2n1C` [Compound 92, 1-[1-(8-ethyl-9-methyl-9H-purin-6-yl)piperidin-4-yl]-1,3-dihydro-2H-benzimidazol-2-one] gave an IC50 of 500 to 1500 nM.
`CCn1ncc(-c2nc3c(N4CCC(n5c(=O)[nH]c6c(F)cccc65)CC4)ncnc3n2C)c1C` [Compound 345, 1-{1-[8-(1-ethyl-5-methyl-1H-pyrazol-4-yl)-9-methyl-9H-purin-6-yl]piperidin-4-yl}-4-fluoro-1,3-dihydro-2H-benzimidazol-2-one] was tested, and the IC50 was under 50 nM.
`Cn1c(C(=O)NCC2CC2)nc2c(N3CCC(n4c(=O)oc5ccccc54)CC3)ncnc21` [Compound 118, N-(cyclopropylmethyl)-9-methyl-6-[4-(2-oxo-1,3-benzoxazol-3(2H)-yl)piperidin-1-yl]-9H-purine-8-carboxamide] was tested, and the IC50 was 50 to 250 nM.
`CC(CNC(=O)c1nc2c(N3CCC4(CC3)C(=O)Nc3ccccc34)ncnc2n1C)c1ccccc1` (stereo not drawn) [Compound 31, 9-methyl-6-(2-oxo-1,2-dihydro-1′H-spiro[indole-3,4′-piperidin]-1′-yl)-N-(2-phenylpropyl)-9H-purine-8-carboxamide] gave an IC50 of 500 to 1500 nM.
